Laboratory results taken from article PMC10057480, “Expanding the Library of 1,2,4-Oxadiazole Derivatives: Discovery of New Farnesoid X Receptor (FXR) Antagonists/Pregnane X Receptor (PXR) Agonists” (Molecules, 2023).

Columns and labels:
[1] = Metabolic stability in human liver S9 fraction; assay type: in vitro ADME; conditions: pH 7.4, 1 μM compound, 37 °C
Protocol: Human liver S9 fraction (Sigma-Aldrich, St. Louis, MO, USA) was used. All incubations were performed in duplicate in a thermoblock (Dlab dry bath HB 120-S) at 37 °C. The incubation mixtures contained 1 μM compound with 0.1% DMSO used as a vehicle, human liver S9 fraction (0.3 mg of protein per mL), 5 mM taurine, 5 mM glycine, 5 mM glucose 6-phosphate, 5 mM GSH, 1 mM NADPH, 1 mM ATP, 0.4 mM CoA, 0.4 mM UDPGA, 0.1 mM PAPS, and 0.4 U·mL^−1 glucose 6-phosphate dehydrogenase. All the cofactors were dissolved in a 50 mM potassium phosphate buffer (pH 7.4), containing 5 mM MgCl2, for a final volume of 0.25 mL. Aliquots of 25 µL were removed at 0, 5, 15, 30, 45, 60, and 90 min after S9 addition, and the reaction was stopped by adding 100 μL of ice-cold MeOH. The samples were centrifuged for 10 min at 10,000 rpm, and the supernatants were transferred into vials for LC-MS/MS analysis. The slope of the linear regression of the curve obtained by reporting the natural logarithm of compound area versus incubation time (−k) was used in the conversion to in vitro t1/2 values, calculated as t1/2 = −ln(2)/k. In vitro intrinsic clearance (Clint expressed as μL/min/mg) was obtained by first calculating V using the formula: V = volume of reaction (μL)/protein of liver microsomes (mg); intrinsic clearance was then calculated as: Clint = (V × ln2)/t1/2.

[2] = test system: FXR target genes (BSEP, OSTα, NTCP) in HepG2 cells; assay: qPCR of FXR target genes in HepG2 cells; assay type: cell-based; conditions: 6-ECDCA 10 μM plus compound
Protocol: HepG2 and CaCo2 cell lines, obtained from ATCC, were routinely cultured in Eagle’s MEM and high-glucose DMEM, respectively, supplemented with 10% FBS, 1% glutamine, and penicillin/streptomycin. For in vitro experiments, HepG2 (2 × 106) cells were stimulated with 6-ECDCA at a concentration of 10 µM alone or in combination with compound 5 or 11, and CaCo2 cells were exposed to TNFα (100 ng/mL) alone or in combination with rifaximin, compound 5, or 11.
Total RNA was isolated from the HepG2 and CaCo2 cell lines using TRI reagent (Zymo Research) and Direct-zol™ RNA MicroPrep w/Zymo-Spin™ IIC Columns (Zymo Research, Irvine, CA, USA). After purification from genomic DNA using DNase I (Thermo Fisher Scientific, Waltham, MA, USA), 2 μg of RNA from each sample was reverse transcribed using Kit FastGene Scriptase Basic (Nippon Genetics, Mariaweilerstraße, Düren, Germany) in 20-μL of reaction volume, and 50 ng of cDNA was amplified in a 20-μL solution containing 200 nM of each primer and 10 μL of PowerUp™ SYBR™ Green Master Mix (Thermo Fisher Scientific, Waltham, MA, USA) using a Quantstudio 3 system (Applied Biosystems, Foster City, CA, USA). The relative mRNA expression was calculated according to the ΔCt method. The primer used were as follows (forward and reverse): hGapdh (for […]; rev […]), hBsep (for […]; rev […]), hOstα (for […]; rev […]), hNtcp (for […]; rev […]), hPxr (for GCAAGGGCTTTTTCAGGAG; rev GGGTCTTCCGGGTGATCT), hIl-8 (for […]; rev […]), hIl-1β (for […]; rev […]).

PXR = biological target: T1, PXR (Homo sapiens, UniProt O75469); assay: PXR luciferase reporter transactivation assay (agonism) on HepG2 cells; assay type: cell-based; conditions: concentration-response, mean ± SEM, at least three experiments
T1 construct: expressed in transfected cells; host or cells: HepG2
T1 sequence (O75469 1-434): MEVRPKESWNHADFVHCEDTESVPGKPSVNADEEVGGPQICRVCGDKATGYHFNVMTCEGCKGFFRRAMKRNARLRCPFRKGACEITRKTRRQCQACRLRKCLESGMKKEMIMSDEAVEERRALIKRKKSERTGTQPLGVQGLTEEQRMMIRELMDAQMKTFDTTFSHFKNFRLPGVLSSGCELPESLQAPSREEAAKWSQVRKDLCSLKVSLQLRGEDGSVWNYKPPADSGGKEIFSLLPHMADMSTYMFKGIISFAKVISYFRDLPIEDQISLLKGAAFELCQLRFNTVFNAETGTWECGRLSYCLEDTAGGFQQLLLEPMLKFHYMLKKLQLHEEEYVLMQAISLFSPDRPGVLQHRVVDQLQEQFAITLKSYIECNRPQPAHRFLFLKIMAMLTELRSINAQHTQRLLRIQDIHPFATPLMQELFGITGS
T1 sequence (P19793 1-462 partner): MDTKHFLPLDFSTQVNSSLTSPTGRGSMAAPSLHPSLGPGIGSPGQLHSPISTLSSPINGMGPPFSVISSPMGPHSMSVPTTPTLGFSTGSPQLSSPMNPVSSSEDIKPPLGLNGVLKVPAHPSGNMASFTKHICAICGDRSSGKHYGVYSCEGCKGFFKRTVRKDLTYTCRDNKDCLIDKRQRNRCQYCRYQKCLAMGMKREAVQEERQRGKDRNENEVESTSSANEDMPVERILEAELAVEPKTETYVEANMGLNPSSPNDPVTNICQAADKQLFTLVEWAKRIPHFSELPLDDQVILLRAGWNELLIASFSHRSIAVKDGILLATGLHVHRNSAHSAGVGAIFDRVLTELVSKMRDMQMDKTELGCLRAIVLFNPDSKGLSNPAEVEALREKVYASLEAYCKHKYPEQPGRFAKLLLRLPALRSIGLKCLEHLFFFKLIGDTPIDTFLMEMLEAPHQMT

SMILES	half-life at 1 µM [1] [h]	microsomal CLint at 1 µM [1] [µL/min/mg]	Effect on BSEP mRNA expression induced by 6-ECDCA [2]	Effect on NTCP mRNA expression [2]	Effect on OSTα mRNA expression induced by 6-ECDCA [2]	EC50 (PXR) [µM]
CCCCCN1CCC(c2nc(-c3ccc4ccccc4c3)no2)CC1 [Compound 5, 3-(Naphthalen-2-yl)-5-(1-pentylpiperidin-4-yl)-1,2,4-oxadiazole]	1.15	33.7	reversed the effect	showed antagonistic activity	only a trend	6.4 ± 0.1
OCc1ccc(CN2CCC(c3nc(-c4ccc5ccccc5c4)no3)CC2)cc1 [Compound 11, 5-[1-(4-(Hydroxymethyl)benzyl)piperidin-4-yl]-3-(naphthalen-2-yl)-1,2,4-oxadiazole]	3.4	11.3	reversed the effect		only a trend	7.5 ± 1
